Measurements taken from ChEMBL document CHEMBL4837182, “Pharmacological Analysis of the Anti-inflammatory and Antiallodynic Effects of Zinagrandinolide E from Zinnia grandiflora in Mice” (J Nat Prod, 2021).
Activity calls are given as the source filed them. No cut-off for these calls is given here.

Legend:
Assay type in all cases: functional, organism-based
[1] = test system: Mus musculus; assay: Antiinflammatory activity in Swiss Webster mouse assessed as protection against carrageenan-induced paw edema at 30 ug/paw local peripheral pretreatment with compound for 15 mins followed by carrageenan challenge and measured after 6 hrs; conditions: dose 30.0 µg, time 375.0 min
[2] = organism: Mus musculus; assay: Antiallodynic activity in Swiss Webster mouse assessed as protection against carrageenan-induced tactile allodynia at 30 ug/paw local peripheral pretreatment with compound for 15 mins followed by carrageenan challenge and measured after 6 hrs; conditions: dose 30.0 µg, time 375.0 min
[3] = test system: Mus musculus; assay: Antiinflammatory activity in Swiss Webster mouse assessed as protection against carrageenan-induced paw edema at 30 ug/paw local peripheral administration and measured after 4 to 6 hrs; conditions: dose 30.0 µg, time 4-6 hrs
[4] = test system: Mus musculus; assay: Antiinflammatory activity in Swiss Webster mouse assessed as reversal of carrageenan-induced paw edema at 30 ug/paw local peripheral administration pretreated with carrageenan for 6 days followed by compound addition and measured 6 hrs post compound treatment; conditions: dose 30.0 µg
[5] = test system: Mus musculus; assay: Antiallodynic activity in Swiss Webster mouse assessed as reversal of carrageenan-induced tactile allodynia at 30 ug/paw local peripheral administration pretreated with carrageenan for 6 days followed by compound addition and measured 6 hrs post compound treatment; conditions: dose 30.0 µg
[6] = test system: Mus musculus; assay: Antiinflammatory activity in local peripheral dosed Swiss Webster mouse assessed as protection against carrageenan-induced paw edema pretreated with compound for 15 mins followed by carrageenan challenge and measured after 6 hrs; conditions: dose 1-30 µg, time 375.0 min
[7] = test system: Mus musculus; assay: Antiallodynic activity in local peripheral dosed Swiss Webster mouse assessed as protection against carrageenan-induced tactile allodynia pretreated with compound for 15 mins followed by carrageenan challenge and measured after 6 hrs; conditions: dose 1-30 µg, time 375.0 min
[8] = test system: Mus musculus; assay: Antiinflammatory activity in Swiss Webster mouse assessed as protection against carrageenan-induced paw edema at 30 ug/paw, it; conditions: dose 30.0 µg
[9] = test system: Mus musculus; assay: Antiallodynic activity in it dosed Swiss Webster mouse assessed as protection against carrageenan-induced tactile allodynia
[10] = test system: Mus musculus; assay: Antiinflammatory activity in Swiss Webster mouse assessed as protection against carrageenan-induced paw edema at 3 to 30 ug/paw local peripheral pretreatment with compound for 15 mins before carrageenan challenge and measured every 3 days for 15 days; conditions: dose 3-30 µg, time 15.0 day
[11] = test system: Mus musculus; assay: Antiallodynic activity in local peripheral dosed Swiss Webster mouse assessed as protection against carrageenan-induced tactile allodynia measured every 3 days for 15 days; conditions: dose 3-30 µg, time 15.0 day
[12] = test system: Mus musculus; assay: Antiallodynic activity in hyperglycemic Swiss Webster mouse model of neuropathic pain assessed as reversal of carrageenan-induced tactile allodynia at 30 ug/paw local peripheral administration and measured after 6 hrs; conditions: dose 30.0 µg
[13] = test system: Mus musculus; assay: Antiallodynic activity in local peripheral dosed hyperglycemic Swiss Webster mouse model of neuropathic pain assessed as reversal of carrageenan-induced tactile allodynia measured after 6 hrs; conditions: dose 3-30 µg
[14] = organism: Mus musculus; assay: Antiallodynic activity in hyperglycemic Swiss Webster mouse model of neuropathic pain assessed as reversal of carrageenan-induced tactile allodynia at 30 ug/paw, it and measured after 6 hrs; conditions: dose 30.0 µg
[15] = test system: Mus musculus; assay: Antiallodynic activity in it dosed hyperglycemic Swiss Webster mouse model of neuropathic pain assessed as reversal of carrageenan-induced tactile allodynia measured after 6 hrs; conditions: dose 3-30 µg
[16] = test system: Mus musculus; assay: Antiinflammatory activity in Swiss Webster mouse assessed as protection against carrageenan-induced paw edema at 30 ug/paw pretreated with naloxone for 15 mins followed by compound addition and measured after 6 hrs; conditions: dose 30.0 µg
[17] = test system: Mus musculus; assay: Antiinflammatory activity in Swiss Webster mouse assessed as protection against carrageenan-induced paw edema at 30 ug/paw pretreated with methiothepin for 15 mins followed by compound addition and measured after 6 hrs; conditions: dose 30.0 µg
[18] = test system: Mus musculus; assay: Antiinflammatory activity in Swiss Webster mouse assessed as protection against carrageenan-induced paw edema at 30 ug/paw pretreated with flumazenil for 15 mins followed by compound addition and measured after 6 hrs; conditions: dose 30.0 µg
[19] = organism: Mus musculus; assay: Antiallodynic activity in Swiss Webster mouse assessed as protection against carrageenan-induced tactile allodynia at 30 ug/paw pretreated with naloxone for 15 mins followed by compound addition and measured after 6 hrs; conditions: dose 30.0 µg
[20] = organism: Mus musculus; assay: Antiallodynic activity in Swiss Webster mouse assessed as protection against carrageenan-induced tactile allodynia at 30 ug/paw pretreated with methiothepin for 15 mins followed by compound addition and measured after 6 hrs; conditions: dose 30.0 µg
[21] = organism: Mus musculus; assay: Antiallodynic activity in Swiss Webster mouse assessed as protection against carrageenan-induced tactile allodynia at 30 ug/paw pretreated with flumazenil for 15 mins followed by compound addition and measured after 6 hrs; conditions: dose 30.0 µg
[22] = test system: Mus musculus; assay: Antiinflammatory activity in Swiss Webster mouse assessed as protection against carrageenan-induced paw edema at 30 ug/paw pretreated with l-NAME for 15 mins followed by compound addition and measured after 6 hrs; conditions: dose 30.0 µg
[23] = test system: Mus musculus; assay: Antiinflammatory activity in Swiss Webster mouse assessed as protection against carrageenan-induced paw edema at 30 ug/paw pretreated with ODQ for 15 mins followed by compound addition and measured after 6 hrs; conditions: dose 30.0 µg
[24] = test system: Mus musculus; assay: Antiinflammatory activity in Swiss Webster mouse assessed as protection against carrageenan-induced paw edema at 30 ug/paw pretreated with glibenclamide for 15 mins followed by compound addition and measured after 6 hrs; conditions: dose 30.0 µg
[25] = organism: Mus musculus; assay: Antiallodynic activity in Swiss Webster mouse assessed as protection against carrageenan-induced tactile allodynia at 30 ug/paw pretreated with l-NAME for 15 mins followed by compound addition and measured after 6 hrs; conditions: dose 30.0 µg
[26] = organism: Mus musculus; assay: Antiallodynic activity in Swiss Webster mouse assessed as protection against carrageenan-induced tactile allodynia at 30 ug/paw pretreated with ODQ for 15 mins followed by compound addition and measured after 6 hrs; conditions: dose 30.0 µg
[27] = organism: Mus musculus; assay: Antiallodynic activity in Swiss Webster mouse assessed as protection against carrageenan-induced tactile allodynia at 30 ug/paw pretreated with glibenclamide for 15 mins followed by compound addition and measured after 6 hrs; conditions: dose 30.0 µg

O=C(O)Cc1ccccc1Nc1c(Cl)cccc1Cl
Activity [1]: Active
Activity [2]: Active
Activity [3]: Active
Activity [4]: inactive
Activity [5]: inactive

C=C[C@@]1(C)[C@H]2OC(=O)C(=C)[C@H]([C@@H]2OC(=O)/C(C)=C\C)[C@H](OC(=O)C(C)C)[C@@H]1C(=C)C(=O)O
Activity [1]: Active
Activity [2]: Active
Activity [6]: Dose-Dependent Effect
Activity [7]: Dose-Dependent Effect
Activity [3]: Active
Activity [8]: inactive
Activity [9]: Dose-Dependent Effect
Activity [10]: inactive
Activity [11]: Dose-Dependent Effect
Activity [4]: Active
Activity [5]: Active
Activity [12]: Active
Activity [13]: Dose-Dependent Effect
Activity [14]: Active
Activity [15]: Dose-Dependent Effect
Activity [16]: inactive
Activity [17]: inactive
Activity [18]: inactive
Activity [19]: inactive
Activity [20]: inactive
Activity [21]: inactive
Activity [22]: inactive
Activity [23]: inactive
Activity [24]: inactive
Activity [25]: inactive
Activity [26]: inactive
Activity [27]: inactive

CC(C)C[C@H](CN)CC(=O)O
Activity [12]: inactive
Activity [14]: Active
